The test system of assay [1] is Human platelet aggregation caused by ADP. In words: Inhibition of ADP-induced platelet aggregation (Mimic-human PRP). The conditions noted are these: 20 μM ADP, human platelet concentrate diluted with PPP, absorption at 595 nm. It counts as cell-based. In short, it runs like this: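 Ki came from non-linear sigmoidal fits of inhibition, measured as the 3-min rise in absorbance at 595 nm after 20 μM ADP, relative to 0/20 μM ADP controls. Platelets (3–4×10^8/mL in PPP-diluted human PRP) were exposed to 0.01–30 μM compound for 20 min at room temperature beforehand.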

The target of the next assay is T1, Human P2Y12 receptor (Homo sapiens, UniProt Q9H244).
T1 construct: expressed in transfected cells; host or cells: HEK cells
T1 sequence (Q9H244 whole entry): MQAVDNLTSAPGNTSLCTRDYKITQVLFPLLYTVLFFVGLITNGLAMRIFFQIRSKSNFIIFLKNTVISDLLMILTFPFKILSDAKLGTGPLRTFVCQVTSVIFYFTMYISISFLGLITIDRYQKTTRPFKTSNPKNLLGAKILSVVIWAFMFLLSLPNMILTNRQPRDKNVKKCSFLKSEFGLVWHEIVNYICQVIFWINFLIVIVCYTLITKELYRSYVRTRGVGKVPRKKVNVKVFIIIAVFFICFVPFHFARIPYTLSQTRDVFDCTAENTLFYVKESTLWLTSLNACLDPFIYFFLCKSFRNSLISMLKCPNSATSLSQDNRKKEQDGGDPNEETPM
In words: Human P2Y12 receptor cell membrane binding assay with [3H] 2-Mes-ADP. The conditions noted are these: 1 nM [3H] 2-Mes-ADP, membranes of HEK cells expressing P2Y12 receptor; read-out: Binding activity (IC50). As for the experimental part: Human P2Y12 Receptor Cell Membrane Binding Assay with [^3H] 2-Mes-ADP
Whether test compounds bind to P2Y12 receptor is measured by [3H]-2MesADP binding in HEK cells expressing P2Y12 receptor. The efficacy according to the amount of test compound can be known through the above test, competitive binding test to P2Y12 receptor, in which the binding material (2-Mes-ADP) is labeled with radioactivity isotope and then the extent of inhibition against the binding of radioactively labeled material is measured.
Preparation of P2Y12 Membrane Protein Fraction
Harvested P2Y12 cells were resuspended with Hypotonic buffer (10 mM HEPES, 10 mM NaCl, 1 mM EDTA, 1 mM EGTA pH 7.4) containing protease inhibitor cocktail. Following the incubation on ice for 15 min, cells were homogenized on ice (Glass/Teflon homogenizer; 1,000 rpm, 10 strokes). The supernant was taken from centrifugation at 500×g for 15 min and then recentrifuged the supernant at 30,000 rpm for 30 min. The membrane pellet was adjusted to 1 mg/mL concentration and stored at −80° C.
P2Y12 Receptor Cell Membrane Binding Assay with [3H] 2-Mes-ADP
The volume of 100 μL of 200 μg membrane protein was aliquoted into 96 well plate. 50 μL volume of test compounds and [^3H] 2-Mes-ADP (final: 1 nM) were added into each well. The total reaction of 0.2 ml/well was incubated for 1 hour at R.T. The reaction was terminated by filtration through GF/B filter using a 96-well cell harvester. […] Radioactivity bound to P2Y12 receptor membrane was counted in a scintillation counter. Total binding was determined with CPM of test group having no compound and non-specific binding was determined with CPM of test group containing 10 μM 2-Mes-ADP. Binding inhibition percent was calculated as follows: [100−(specific binding in the presence of test material/specific binding in the absence of test material×100)].

Values joined by “and” are separate entries in the source; they are usually repeats but may differ in a detail not shown here. Equal values may be shown once.

The term Ki denotes the dissociation constant of the complex between target and ligand, obtained from inhibition or displacement. One may read the IC50 as the concentration that gives 50% inhibition. `CCCc1cc2c(N3CCn4c(nnc4C(F)(F)F)C3)nc(N3CCNC(=O)C3)nc2s1` [Example 1-1, 4-[6-Propyl-4-(3-trifluoromethyl-5,6-dihydro-8H-[1,2,4]triazolo[4,3-a]pyrazin-7-yl)-thieno[2,3-d]pyrimidin-2-yl]-piperazin-2-one] registered a Ki in assay [1] of 130 nM. Also, at Human P2Y12 receptor, the IC50 was determined as 20 nM.
With `CCCc1cc2c(N3CCn4c(nnc4C(F)(F)F)C3)nc(N3CCN(C)CC3)nc2s1` [Example 1-3, 7-[2-(4-Methyl-piperazin-1-yl)-6-propyl-thieno[2,3-d]pyrimidin-4-yl]-3-trifluoromethyl-5,6,7,8-tetrahydro-[1,2,4]triazolo[4,3-a]pyrazine], the Ki in assay [1] stood at 164 nM. The IC50 at Human P2Y12 receptor amounted to 92 nM.
`CCCc1cc2c(N3CCn4c(nnc4C(F)(F)F)C3)nc(N3CCNCC3)nc2s1` [Example 1-4, 7-(2-piperazin-1-yl-6-propyl-thieno[2,3-d]pyrimidin-4-yl)-3-trifluoromethyl-5,6,7,8-tetrahydro-[1,2,4]triazolo[4,3-a]pyrazine] displayed a Ki in assay [1] of 300 nM. Besides, at Human P2Y12 receptor, the IC50 stood at 64 nM.
As to `CCCc1cc2c(N3CCn4c(nnc4C(F)(F)F)C3)nc(N3CCN(CCO)CC3)nc2s1` [Example 1-5, 2-{4-[6-Propyl-4-(3-trifluoromethyl-5,6-dihydro-8H-[1,2,4]triazolo[4,3-a]pyrazin-7-yl)-thieno[2,3-d]pyrimidin-2-yl]-piperazin-1-yl}-ethanol], the inhibitory constant (Ki) in assay [1] was 160 nM and 210 nM. Further, at Human P2Y12 receptor, the IC50 was determined as 96 nM.
The molecule `CCCc1cc2c(N3CCn4c(nnc4C(F)(F)F)C3)nc(N3CCN(C(=O)OCC)CC3)nc2s1` [Example 1-7, 4-[6-Propyl-4-(3-trifluoromethyl-5,6-dihydro-8H-[1,2,4]triazolo[4,3-a]pyrazin-7-yl)-thieno[2,3-d]pyrimidin-2-yl]-piperazine-1-carboxylic acid ethyl ester] returned a Ki in assay [1] of 770 nM. The IC50 on Human P2Y12 receptor worked out at 220 nM.
The corresponding values for `CCCc1cc2c(N3CCn4c(nnc4C(F)(F)F)C3)nc(N3CCN(S(=O)(=O)CC)CC3)nc2s1` [Example 1-8, 7-[2-(4-Ethanesulfonyl-piperazin-1-yl)-6-propyl-thieno[2,3-d]pyrimidin-4-yl]-3-trifluoromethyl-5,6,7,8-tetrahydro-[1,2,4]triazolo[4,3-a]pyrazine] are 300 nM and 56 nM.
As for `CCCc1cc2c(N3CCn4c(nnc4C(F)(F)F)C3)nc(N3CCN(C(=O)CO)CC3)nc2s1` [Example 1-9, 2-Hydroxy-1-{4-[6-propyl-4-(3-trifluoromethyl-5,6-dihydro-8H-[1,2,4]triazolo[4,3-a]pyrazin-7-yl)-thieno[2,3-d]pyrimidin-2-yl]-piperazin-1-yl}-ethanone], the affinity in assay [1], expressed as Ki, was 500 nM. Also, on Human P2Y12 receptor, the IC50 turned out to be 70 nM.
In assay [1], `CCCc1cc2c(N3CCn4c(nnc4C(F)(F)F)C3)nc(NCCO)nc2s1` [Example 1-10, 2-[6-Propyl-4-(3-trifluoromethyl-5,6-dihydro-8H-[1,2,4]triazolo[4,3-a]pyrazin-7-yl)-thieno[2,3-d]pyrimidin-2-ylamino]-ethanol] returned a Ki of 178 nM. In addition, the IC50 on Human P2Y12 receptor was found to be 110 nM.
Turning to `CCCc1cc2c(N3CCn4c(nnc4C(F)(F)F)C3)nc(NCC3CCN(Cc4ccccc4)C3)nc2s1` (stereo not drawn) [Example 1-11, (1-Benzyl-pyrrolidin-3-ylmethyl)-[6-propyl-4-(3-trifluoromethyl-5,6-dihydro-8H-[1,2,4]triazolo[4,3-a]pyrazin-7-yl)-thieno[2,3-d]pyrimidin-2-yl]-amine], the inhibition constant (Ki) in assay [1] is 1380 nM. Moreover, at Human P2Y12 receptor, the IC50 was determined as 260 nM.
Molecule `CCCc1cc2c(N3CCn4c(nnc4C(F)(F)F)C3)nc(N3CCC(CN)C3)nc2s1` (stereo not drawn) [Example 1-12, C-{1-[6-Propyl-4-(3-trifluoromethyl-5,6-dihydro-8H-[1,2,4]triazolo[4,3-a]pyrazin-7-yl)-thieno[2,3-d]pyrimidin-2-yl]-pyrrolidin-3-yl}-methylamine] returned a Ki in assay [1] of 226 nM. Moreover, the half-maximal inhibitory concentration (IC50) at Human P2Y12 receptor stood at 84 nM.
For `CCCc1cc2c(N3CCn4c(nnc4C(F)(F)F)C3)nc(N3CC[C@@H](N)C3)nc2s1` [Example 1-13, (R)-1-[6-Propyl-4-(3-trifluoromethyl-5,6-dihydro-8H-[1,2,4]triazolo[4,3-a]pyrazin-7-yl)-thieno[2,3-d]pyrimidin-2-yl]-pyrrolidin-3-ylamine], the Ki in assay [1] worked out at 90 nM. Moreover, the IC50 on Human P2Y12 receptor stood at 83 nM.
The corresponding values for `CCCc1cc2c(N3CCn4c(nnc4C(F)(F)F)C3)nc(N3CC[C@H](N)C3)nc2s1` [Example 1-14, (S)-1-[6-Propyl-4-(3-trifluoromethyl-5,6-dihydro-8H-[1,2,4]triazolo[4,3-a]pyrazin-7-yl)-thieno[2,3-d]pyrimidin-2-yl]-pyrrolidin-3-ylamine] are 34 nM and 60 nM.
On to `CCCc1cc2c(N3CCn4c(nnc4C(F)(F)F)C3)nc(N3CCOCC3)nc2s1` [Example 1-15, 7-(2-Morpholin-4-yl-6-propyl-thieno[2,3-d]pyrimidin-4-yl)-3-trifluoromethyl-5,6,7,8-tetrahydro-[1,2,4]triazolo[4,3-a]pyrazine], for which, in assay [1], the Ki was found to be 95 nM. In addition, at Human P2Y12 receptor, the concentration for half-maximal inhibition (IC50) was 62 nM.
`CCCc1cc2c(N3CCn4c(nnc4C(F)(F)F)C3)nc(N3CC[C@H](O)C3)nc2s1` [Example 1-16, (S)-1-[6-Propyl-4-(3-trifluoromethyl-5,6-dihydro-8H-[1,2,4]triazolo[4,3-a]pyrazin-7-yl)-thieno[2,3-d]pyrimidin-2-yl]-pyrrolidin-3-ol] returned an inhibition constant Ki in assay [1] of 45 nM. In addition, at Human P2Y12 receptor, the IC50 amounted to 36 nM.
Regarding `CCCc1cc2c(N3CCn4c(nnc4C(F)(F)F)C3)nc(N3CC[C@@H](O)C3)nc2s1` [Example 1-17, (R)-1-[6-Propyl-4-(3-trifluoromethyl-5,6-dihydro-8H-[1,2,4]triazolo[4,3-a]pyrazin-7-yl)-thieno[2,3-d]pyrimidin-2-yl]-pyrrolidin-3-ol], affinity in assay [1] was put at a Ki of 80 nM. Moreover, the 50% inhibitory concentration (IC50) at Human P2Y12 receptor was determined as 41 nM.
Consider `CCCc1cc2c(N3CCn4c(nnc4C(F)(F)F)C3)nc(N3CCC(=O)C3)nc2s1` [Example 1-18, 1-[6-Propyl-4-(3-trifluoromethyl-5,6-dihydro-8H-[1,2,4]triazolo[4,3-a]pyrazin-7-yl)-thieno[2,3-d]pyrimidin-2-yl]-pyrrolidin-3-one], for which the Ki in assay [1] was found to be 34 nM. Moreover, at Human P2Y12 receptor, the IC50 was 54 nM.
The corresponding values for `CCCc1cc2c(N3CCn4c(nnc4C(F)(F)F)C3)nc(N3CCC(=NO)C3)nc2s1` [Example 1-19, 1-[6-Propyl-4-(3-trifluoromethyl-5,6-dihydro-8H-[1,2,4]triazolo[4,3-a]pyrazin-7-yl)-thieno[2,3-d]pyrimidin-2-yl]-pyrrolidin-3-one oxime] are 56 nM and 55 nM.
`CCCc1cc2c(N3CCn4c(nnc4C(F)(F)F)C3)nc(N3CCC(=NOC)C3)nc2s1` [Example 1-20, 1-[6-Propyl-4-(3-trifluoromethyl-5,6-dihydro-8H-[1,2,4]triazolo[4,3-a]pyrazin-7-yl)-thieno[2,3-d]pyrimidin-2-yl]-pyrrolidin-3-one O-methyloxime]: the affinity in assay [1], expressed as Ki, was 190 nM. The IC50 at Human P2Y12 receptor stood at 163 nM.
For `CCCc1cc2c(N3CCn4c(nnc4C(F)(F)F)C3)nc(N3CCC(=NOCc4ccccc4)C3)nc2s1` [Example 1-21, 1-[6-Propyl-4-(3-trifluoromethyl-5,6-dihydro-8H-[1,2,4]triazolo[4,3-a]pyrazin-7-yl)-thieno[2,3-d]pyrimidin-2-yl]-pyrrolidin-3-one O-benzyloxime], the affinity in assay [1], expressed as Ki, was 220 nM. The IC50 on Human P2Y12 receptor was found to be 452 nM.
On to `CCCc1cc2c(N3CCn4c(nnc4C(F)(F)F)C3)nc(N3CC[C@H](OC(C)=O)C3)nc2s1` [Example 1-22, Acetic Acid (S)-1-[6-propyl-4-(3-trifluoromethyl-5,6-dihydro-8H-[1,2,4]triazolo[4,3-a]pyrazin-7-yl)-thieno[2,3-d]pyrimidin-2-yl]-pyrrolidin-3-yl ester], for which the affinity in assay [1], expressed as Ki, was 130 nM. The IC50 on Human P2Y12 receptor was found to be 65 nM.
Take `CCCc1cc2c(N3CCn4c(nnc4C(F)(F)F)C3)nc(N3CC[C@@H](OC(C)=O)C3)nc2s1` [Example 1-23, Acetic Acid (R)-1-[6-propyl-4-(3-trifluoromethyl-5,6-dihydro-8H-[1,2,4]triazolo[4,3-a]pyrazin-7-yl)-thieno[2,3-d]pyrimidin-2-yl]-pyrrolidin-3-yl ester]: in assay [1], the Ki stood at 94 nM. The IC50 at Human P2Y12 receptor worked out at 90 nM.

The values above are taken from US20110166121A1 (LG LIFE SCIENCES LTD., priority 2008, published 2011).
